Laboratory results as given in patent US11083725B2 (priority 2014, dated 2021).

Tested on: NHBE cells
Assay: Biolog metabolic array: substrate use by NHBE cells with or without CA09 infection
Format: cell-based, human
Conditions: for Substrate use, 590 nm absorbance normalized to zero hour, 1 hr: Biolog PMM2, 1 hr; for Substrate use, 590 nm absorbance normalized to zero hour, 5 hr: Biolog PMM2, 5 hr; for Substrate use, 590 nm absorbance normalized to zero hour, 7 hr: Biolog PMM2, 7 hr; for Substrate use, 590 nm absorbance normalized to zero hour, 0 hr: Biolog PMM2, 0 hr
[1] = Control (uninfected) NHBE cells
[2] = Virus (CA09, MOI 1) infected NHBE cells
[3] = Virus (CA09-infected, MOI 1) NHBE cells
[4] = Virus: CA09-infected NHBE cells, MOI 1, Biolog PMM2

| Compound | 590 nm absorbance normalized to zero hour (substrate use), 1 hr [1] | 590 nm absorbance normalized to zero hour (substrate use), 2 hr [1] | 590 nm absorbance normalized to zero hour (substrate use), 3 hr [1] | 590 nm absorbance normalized to zero hour (substrate use), 4 hr [1] | 590 nm absorbance normalized to zero hour (substrate use), 6 hr [1] | 590 nm absorbance normalized to zero hour (substrate use), 8 hr [1] | 590 nm absorbance normalized to zero hour (substrate use), 9 hr [1] | 590 nm absorbance normalized to zero hour (substrate use), 10 hr [1] | 590 nm absorbance normalized to zero hour (substrate use), 11 hr [1] | Substrate use, 590 nm absorbance normalized to zero hour, 1 hr [1] | Substrate use, 590 nm absorbance normalized to zero hour, 5 hr [1] | Substrate use, 590 nm absorbance normalized to zero hour, 7 hr [1] | 590 nm absorbance normalized to zero hour (substrate use), 1 hr [3] | 590 nm absorbance normalized to zero hour (substrate use), 2 hr [3] | 590 nm absorbance normalized to zero hour (substrate use), 3 hr [3] | 590 nm absorbance normalized to zero hour (substrate use), 4 hr [3] | 590 nm absorbance normalized to zero hour (substrate use), 6 hr [3] | 590 nm absorbance normalized to zero hour (substrate use), 8 hr [3] | 590 nm absorbance normalized to zero hour (substrate use), 9 hr [3] | 590 nm absorbance normalized to zero hour (substrate use), 10 hr [3] | further results |
| --- | --- | --- | --- | --- | --- | --- | --- | --- | --- | --- | --- | --- | --- | --- | --- | --- | --- | --- | --- | --- | --- |
| OC[C@H]1O[C@H](O[C@H]2[C@H](O)[C@@H](O)[C@H](O)O[C@@H]2CO)[C@H](O)[C@@H](O)[C@@H]1O [Maltose] | 1.07 | 1.04 | 1.27 | 1.22 | 1.72 | 1.68 | 1.97 | 1.93 | 2.37 | 1.07 | 1.53 | 1.53 | 2.29 | 3.23 | 3.88 | 4.21 | 5.86 | 7.01 | 8.07 | 8.77 | Substrate use, 590 nm absorbance normalized to zero hour, 1 hr [2]: 2.29; Substrate use, 590 nm absorbance normalized to zero hour, 5 hr [2]: 5.22; Substrate use, 590 nm absorbance normalized to zero hour, 7 hr [2]: 6.41; 590 nm absorbance normalized to zero hour (substrate use), 11 hr [3]: 8.43 |
| O=C(O)[C@H](O)[C@@H](O)[C@H](O)[C@H](O)CO[C@H]1O[C@H](CO)[C@H](O)[C@H](O)[C@H]1O [Melibionic Acid] | 0.20 | 0.76 | 0.58 | 0.66 | 0.40 | 0.51 | 0.53 | 0.57 | 0.60 | 0.20 | 0.48 | 0.47 | 3.52 | 3.58 | 3.59 | 3.66 | 3.22 | 2.89 | 2.67 | 1.66 | 590 nm absorbance normalized to zero hour (substrate use), 0 hr [1]: 1.00; Substrate use, 590 nm absorbance normalized to zero hour, 0 hr [1]: 1.00; Substrate use, 590 nm absorbance normalized to zero hour, 0 hr [2]: 1.00; Substrate use, 590 nm absorbance normalized to zero hour, 1 hr [2]: 3.52; Substrate use, 590 nm absorbance normalized to zero hour, 5 hr [2]: 3.34; Substrate use, 590 nm absorbance normalized to zero hour, 7 hr [2]: 3.05; 590 nm absorbance normalized to zero hour (substrate use), 0 hr [3]: 1.00; 590 nm absorbance normalized to zero hour (substrate use), 11 hr [3]: 2.18 |
| COC(=O)[C@@H](C)O [Methyl D-Lactate] | 1.36 | 1.52 | 2.08 | 2.04 | 1.34 | 2.16 | 2.39 | 2.41 | 2.99 | 1.36 | 2.26 | 2.14 | 2.10 | 2.49 | 2.89 | 2.64 | 2.94 | 3.20 | 3.46 | 3.46 | 590 nm absorbance normalized to zero hour (substrate use), 5 hr [3]: 2.75; 590 nm absorbance normalized to zero hour (substrate use), 7 hr [3]: 3.10; 590 nm absorbance normalized to zero hour (substrate use), 11 hr [3]: 3.61; 590 nm absorbance normalized to zero hour (substrate use), 1 hr [4]: 2.10; 590 nm absorbance normalized to zero hour (substrate use), 2 hr [4]: 2.49; 590 nm absorbance normalized to zero hour (substrate use), 3 hr [4]: 2.89; 590 nm absorbance normalized to zero hour (substrate use), 4 hr [4]: 2.64; 590 nm absorbance normalized to zero hour (substrate use), 5 hr [4]: 2.75; 590 nm absorbance normalized to zero hour (substrate use), 6 hr [4]: 2.94; 590 nm absorbance normalized to zero hour (substrate use), 7 hr [4]: 3.10; 590 nm absorbance normalized to zero hour (substrate use), 8 hr [4]: 3.20; 590 nm absorbance normalized to zero hour (substrate use), 9 hr [4]: 3.46; 590 nm absorbance normalized to zero hour (substrate use), 10 hr [4]: 3.46; 590 nm absorbance normalized to zero hour (substrate use), 11 hr [4]: 3.61 |
| COC(=O)C(C)=O [Methyl Pyruvate] | 1.32 | 1.57 | 1.25 | 1.36 | 0.77 | 1.65 | 1.74 | 1.79 | 1.76 | 1.32 | 1.59 | 1.51 | 1.93 | 2.20 | 2.60 | 2.51 | 2.87 | 3.03 | 3.24 | 3.21 | 590 nm absorbance normalized to zero hour (substrate use), 5 hr [3]: 2.66; 590 nm absorbance normalized to zero hour (substrate use), 7 hr [3]: 2.99; 590 nm absorbance normalized to zero hour (substrate use), 11 hr [3]: 3.04; 590 nm absorbance normalized to zero hour (substrate use), 1 hr [4]: 1.93; 590 nm absorbance normalized to zero hour (substrate use), 2 hr [4]: 2.20; 590 nm absorbance normalized to zero hour (substrate use), 3 hr [4]: 2.60; 590 nm absorbance normalized to zero hour (substrate use), 4 hr [4]: 2.51; 590 nm absorbance normalized to zero hour (substrate use), 5 hr [4]: 2.66; 590 nm absorbance normalized to zero hour (substrate use), 6 hr [4]: 2.87; 590 nm absorbance normalized to zero hour (substrate use), 7 hr [4]: 2.99; 590 nm absorbance normalized to zero hour (substrate use), 8 hr [4]: 3.03; 590 nm absorbance normalized to zero hour (substrate use), 9 hr [4]: 3.24; 590 nm absorbance normalized to zero hour (substrate use), 10 hr [4]: 3.21; 590 nm absorbance normalized to zero hour (substrate use), 11 hr [4]: 3.04 |
